Data: patent US11872262B2, “Means and methods for treating bacterial infections” (VIB VZW, priority 2017, dated 2024)
Residues, ends and D or L forms follow the SMILES beside them. *: point of attachment. FITC = O=C1OC2(c3ccc(O)cc3Oc3cc(O)ccc32)c2ccc(NC(=S)*)cc21

Tests used:
[1] = test system: E. coli O157; assay type: cell-based, Escherichia coli; details: HPLC-grade purified peptides, E. coli O157
Protocol: The MICs of active peptides were determined via the Broth microdilution assay according to the EUCAST guideline, which were performed in 96-well polystyrene flat-bottom microtiter plates (BD Biosciences). Briefly, a single colony was inoculated into 5 mL LB medium and grown to the end-exponential growth phase in a shaking incubator at 37° C. Cultures were subsequently diluted to an OD600 of 0.002 ([…]) in fresh LB medium. 100 μL of LB medium with different concentration of peptides ranging from 100 μg/mL to 1 μg/mL were serially diluted to the sterile 96-well plate (at least 3 wells in each plate). Afterward, 100 μL of the diluted bacteria were pipetted into 96-well plates containing different concentration of peptides. In each plate, the grown bacteria with maximum concentration of carrier and medium were considered as positive and negative controls, respectively. Thereafter, 96-well plates was statically incubated overnight at 37° C. to allow bacterial growth. A multipurpose UV/VIS plate reader at OD590 nm, 1 s shaking measured the absorbance of the growth bacteria using a Perkin Elmer spectrophotometer (1420 Multilabel Counter Victor 3).

[2] = Biodistribution study in healthy animals; assay type: in vivo, mice; details: single dose of 10 mg/kg, IP or urinary tract
Protocol: FIG. 7: Fluorescence imaging of organs ex vivo 3 h after a single injection (10 mg/kg) of Colpeptin1.
Given these positive results, we then established the tolerance of the Swiss mice to the peptide by performing a dose escalation experiment. […] The parameters observed included body weight, food and water consumption, home cage activity and locomotion. […] Based on these observations, we tested the antibacterial efficacy of the colpeptin1 in a mouse bladder infection model. In this model, an inoculum of 50 μL of a 10^8 CFU/mL suspension of E. coli O157:H7 was delivered via the urethra to the bladder of healthy Swiss mice. 1 h post-infection, we administered a single injection of colpeptin1 at 10 mg/kg, either via the urethra (n=15) or intraperitoneally (n=15). 24 h after treatment, the animals were sacrificed and the bacterial titer in kidney, colon, bladder and ureter was determined by plating the macerated tissue (FIG. 2F-l).

[3] = test system: E. coli O157:H7; assay type: cell-based, Escherichia coli; details: screening-stage peptides tested at 1, 6, 12 and 25 μg/mL
Procedure, shortened: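 Tandem-repeat aggregation-prone-region peptides from DMSO stocks were tested for growth inhibition of E. coli O157:H7 at 1, 6, 12 and 25 μg/mL.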

Q: Which MIC [1] does the source give for `CC(C)C[C@H](NC(=O)CNC(=O)[C@H](CCCNC(=N)N)NC(=O)[C@@H]1CCCN1C(=O)[C@H](CCCNC(=N)N)NC(=O)[C@H](CCCNC(=N)N)NC(=O)[C@@H]1CCCN1C(=O)[C@H](CC(C)C)NC(=O)[C@H](C)NC(=O)[C@@H]1CCCN1C(=O)CNC(=O)[C@H](CC(C)C)NC(=O)CNC(=O)[C@@H](N)CCCNC(=N)N)C(=O)NCC(=O)N1CCC[C@H]1C(=O)N[C@@H](C)C(=O)N[C@@H](CC(C)C)C(=O)N1CCC[C@H]1C(=O)N[C@@H](CCCNC(=N)N)C(=O)N[C@@H](CCCNC(=N)N)C(=O)O` [P2 pro2] (H-RGLGPALPRRPRGLGPALPRR-OH) here?
A: Its MIC is greater than 100 µg/mL.

Q: Which results are given for `CC(C)C[C@H](NC(=O)CNC(=O)[C@H](CCCNC(=N)N)NC(=O)[C@@H]1CCCN1C(=O)[C@H](CCCNC(=N)N)NC(=O)[C@H](CCCNC(=N)N)NC(=O)[C@@H](NC(=O)[C@H](CC(C)C)NC(=O)[C@H](C)NC(=O)[C@H](CC(C)C)NC(=O)CNC(=O)[C@H](CC(C)C)NC(=O)CNC(=O)[C@H](CCCNC(=N)N)NC(=S)Nc1ccc2c(c1)C(=O)OC21c2ccc(O)cc2Oc2cc(O)ccc21)C(C)C)C(=O)NCC(=O)N[C@@H](CC(C)C)C(=O)N[C@@H](C)C(=O)N[C@@H](CC(C)C)C(=O)N[C@H](C(=O)N[C@@H](CCCNC(=N)N)C(=O)N[C@@H](CCCNC(=N)N)C(=O)O)C(C)C` [FITC-colpeptin1] ({FITC}-RGLGLALVRRPRGLGLALVRR-OH; N-terminus and C-terminus assumed)?
A: clearance of the peptide [2]: total clearance of the peptide after 24 h; duration of distribution of fluorescent material after injection [2]: at least 3 h

Q: With `CC[C@H](C)[C@H](NC(=O)CNC(=O)[C@@H](NC(=O)[C@H](CC(C)C)NC(=O)[C@H](CCCNC(=N)N)NC(=O)[C@@H]1CCCN1C(=O)[C@H](CCCNC(=N)N)NC(=O)[C@H](CCCNC(=N)N)NC(=O)CNC(=O)[C@H](CC(C)C)NC(=O)[C@H](C)NC(=O)[C@@H](NC(=O)[C@H](CCCNC(=N)N)NC(=O)[C@@H](NC(=O)[C@H](CC(C)C)NC(=O)[C@@H](N)CCCNC(=N)N)[C@@H](C)CC)[C@@H](C)CC)[C@@H](C)CC)C(=O)N[C@@H](C)C(=O)N[C@@H](CC(C)C)C(=O)NCC(=O)N[C@@H](CCCNC(=N)N)C(=O)N[C@@H](CCCNC(=N)N)C(=O)O` [Peptide P115] (H-RLIRIALGRRPRLIGIALGRR-OH; N-terminus and C-terminus assumed) as the compound, how does the “E. coli O157 (apparent MIC in screen)” value [3] read?
A: The value was 25 µg/mL.
